{"source": "paper PMC12011184", "about": "“Galanin Reduces Myocardial Ischemia/Reperfusion Injury in Rats with Streptozotocin Diabetes” (Acta Naturae, 2025)", "assay": "Solubility of peptide G in water", "format": "physicochemical", "procedure": "Peptide G was obtained by convergent solid-phase synthesis through condensation of peptide segments, which, in turn, were obtained either on a polymer surface or in solution. Peptide G was purified by preparative HPLC to 98% purity on a Knauer chromatograph (Germany) using a Kromasil 100-10 ODS column (Sweden) (30 × 250 mm). Analytical HPLC was performed on a Kromasil 100-5 C18 column (4.6 × 250 mm) with a 5-μm sorbent particle size. The following eluents were used: 0.1% TFA as buffer A and 80% acetonitrile in buffer A as buffer B. The elution was carried out in a linear buffer B gradient ranging from 20 to 80% for 30 min at a rate of 1 ml/min. Detection was performed at λ = 220 nm (Supplementary materials; Fig. S1). The peptide structure was confirmed by MALDI-TOF/TOF mass spectrometry on an UltrafleXtreme Bruker Daltonics GmbH mass spectrometer (Germany) equipped with a UV laser (Nd) (Supplementary materials, Fig. S2).", "data": [{"smiles": "CC[C@H](C)[C@H](NC(=O)[C@H](C)NC(=O)[C@H](Cc1c[nH]cn1)NC(=O)[C@@H]1CCCN1C(=O)CNC(=O)[C@H](CC(C)C)NC(=O)[C@H](CC(C)C)NC(=O)[C@H](Cc1ccc(O)cc1)NC(=O)CNC(=O)[C@H](C)NC(=O)[C@H](CO)NC(=O)[C@H](CC(N)=O)NC(=O)[C@H](CC(C)C)NC(=O)[C@@H](NC(=O)[C@H](Cc1c[nH]c2ccccc12)NC(=O)CN)[C@@H](C)O)C(=O)N[C@@H](CC(=O)O)C(=O)N[C@@H](CC(N)=O)C(=O)N[C@@H](Cc1c[nH]cn1)C(=O)N[C@@H](CCCNC(=N)N)C(=O)N[C@@H](CO)C(=O)N[C@@H](Cc1ccccc1)C(=O)N[C@@H](CO)C(=O)N[C@@H](CC(=O)O)C(=O)N[C@@H](CCCCN)C(=O)N[C@@H](Cc1c[nH]cn1)C(=O)NCC(=O)N[C@@H](CC(C)C)C(=O)N[C@H](C(N)=O)[C@@H](C)O", "note": "[G, galanin]", "values": [{"measurement": "solubility", "result": "> 40", "unit": "mg/mL"}]}]}
